According to US11590116B2 (THERAVANCE BIOPHARMA R&D IP, LLC, priority 2019, dated 2023):

What was measured:
[1] = target: T1, recombinant human ALK5 (TGF-βR1) protein (Homo sapiens, UniProt P36897); assay: Biochemical ALK5 (TGF-βR1) assay to measure pKi (LANCE Ultra ULight kinase assay); conditions: apparent pKi from pIC50 by Cheng-Prusoff, read-out: ALK5 pKi (converted)
T1 construct: purchased Life Technologies PR9075A
T1 sequence (P36897 34-503): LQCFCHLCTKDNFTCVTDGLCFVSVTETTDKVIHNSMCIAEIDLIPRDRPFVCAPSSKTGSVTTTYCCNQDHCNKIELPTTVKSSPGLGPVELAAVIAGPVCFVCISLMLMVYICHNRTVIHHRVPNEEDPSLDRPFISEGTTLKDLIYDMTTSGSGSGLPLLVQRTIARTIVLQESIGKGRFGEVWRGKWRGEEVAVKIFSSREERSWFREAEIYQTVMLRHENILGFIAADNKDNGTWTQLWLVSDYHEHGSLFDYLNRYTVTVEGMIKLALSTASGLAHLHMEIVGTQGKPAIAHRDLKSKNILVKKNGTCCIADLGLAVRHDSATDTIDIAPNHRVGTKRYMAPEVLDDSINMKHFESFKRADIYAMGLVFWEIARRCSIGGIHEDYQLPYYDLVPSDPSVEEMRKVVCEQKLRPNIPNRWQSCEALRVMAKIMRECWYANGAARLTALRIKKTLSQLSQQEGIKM
Summary of the method: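 After a 60 min room-temperature preincubation of ALK5 with compound, phosphorylation proceeds 60 min at 37 °C on ATP addition (125 μM as 5× stock). Detection: Eu-labelled phospho-Thr1342 Topo IIα antibody in EDTA buffer, pH 7.0; emission 665 nm.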

[2] = system: TGF-β-stimulated SMAD3 phosphorylation in BEAS-2B cells; assay: Cellular ALK5 potency assay, inhibition of TGF-β stimulated pSMAD3 formation in BEAS-2B cells; format: cell-based; conditions: Homo sapiens; inhibition of TGF-β stimulated pSMAD3 formation, BEAS-2B cells; read-out: BEAS2B pIC50 (converted)
Summary of the method: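 BEAS-2B human lung epithelial cells, seeded overnight, were pre-treated with compound in HBSS/25 mM HEPES/1% BSA for 1 h at 37 °C, then stimulated with TGF-β (final 10 ng/mL) for 30 min. Lysates were assayed for pSMAD3 by AlphaLISA; pIC50 came from dose-dependent signal change versus TGF-β-stimulated untreated cells.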

| Ki [1] [nM] | Compound | IC50 [2] [nM] |
| --- | --- | --- |
| 0.398 to 3.16 | Cc1cccc(-c2n[nH]cc2-c2ccc3nccc(C(N)=O)c3n2)n1 [Compound 806, 6-[3-(6-methyl-2-pyridyl)-1H-pyrazol-4-yl]-1,5-naphthyridine-4-carboxamide] | 25.1 to 158 |
| 0.398 to 3.16 | Cc1cccc(-c2n[nH]cc2-c2ccc3nccc(CCC(=O)N4CCOCC4)c3n2)n1 [Compound 810, 3-[6-[3-(6-methyl-2-pyridyl)-1H-pyrazol-4-yl]-1,5-naphthyridin-4-yl]-1-morpholino-propan-1-one] | 200 to 1260 |
| 0.0398 to 0.316 | Cc1cccc(-c2n[nH]cc2-c2ccc3nccc(CN4CCOCC4)c3n2)n1 [Compound 811, 4-[[6-[3-(6-methyl-2-pyridyl)-1H-pyrazol-4-yl]-1,5-naphthyridin-4-yl]methyl]morpholine] | 200 to 1260 |
| 0.398 to 3.16 | Cc1cccc(-c2n[nH]cc2-c2ccc3nccc(CCCN4CCOCC4)c3n2)n1 [Compound 812, 4-[3-[6-[3-(6-methyl-2-pyridyl)-1H-pyrazol-4-yl]-1,5-naphthyridin-4-yl]propyl]morpholine] | 200 to 1260 |
| 0.0398 to 0.316 | CCOC(=O)CCc1ccnc2ccc(-c3c[nH]nc3-c3cccc(C)n3)nc12 [Compound 814, ethyl 3-[6-[3-(6-methyl-2-pyridyl)-1H-pyrazol-4-yl]-1,5-naphthyridin-4-yl]propanoate] | 25.1 to 158 |
| 0.0398 to 0.316 | Cc1cccc(-c2n[nH]cc2-c2ccc3nccc(CNCCCN4CCOCC4)c3n2)n1 [Compound 815, N-[[6-[3-(6-methyl-2-pyridyl)-1H-pyrazol-4-yl]-1,5-naphthyridin-4-yl]methyl]-3-morpholino-propan-1-amine] | 25.1 to 158 |
| 0.0398 to 0.316 | Cc1cccc(-c2n[nH]cc2-c2ccc3nccc(CNCCN4CCOCC4)c3n2)n1 [Compound 816, N-[[6-[3-(6-methyl-2-pyridyl)-1H-pyrazol-4-yl]-1,5-naphthyridin-4-yl]methyl]-2-morpholino-ethanamine] | 25.1 to 158 |
| 0.398 to 3.16 | COC(=O)c1coc(-c2ccnc3ccc(-c4c[nH]nc4-c4cccc(C)n4)nc23)n1 [Compound 817, methyl 2-[6-[3-(6-methyl-2-pyridyl)-1H-pyrazol-4-yl]-1,5-naphthyridin-4-yl]oxazole-4-carboxylate] | 200 to 1260 |
| 0.0398 to 0.316 | CNC(=O)c1ccnc2ccc(-c3c[nH]nc3-c3cccc(C)n3)nc12 [Compound 818, N-methyl-6-[5-(6-methyl-2-pyridyl)-1H-pyrazol-4-yl]-1,5-naphthyridine-4-carboxamide] | 25.1 to 158 |
| 0.0398 to 0.316 | Cc1cccc(-c2n[nH]cc2-c2ccc3nccc(CNCCCN4CCN(C(C)C)CC4)c3n2)n1 [Compound 819, 3-(4-isopropylpiperazin-1-yl)-N-[[6-[3-(6-methyl-2-pyridyl)-1H-pyrazol-4-yl]-1,5-naphthyridin-4-yl]methyl]propan-1-amine] | 25.1 to 158 |
| 0.0398 to 0.316 | Cc1cccc(-c2n[nH]cc2-c2ccc3nccc(CNCCN4CCN(C(C)C)CC4)c3n2)n1 [Compound 820, 2-(4-isopropylpiperazin-1-yl)-N-[[6-[3-(6-methyl-2-pyridyl)-1H-pyrazol-4-yl]-1,5-naphthyridin-4-yl]methyl]ethanamine] | 25.1 to 158 |
| 0.398 to 3.16 | CCOC(=O)CN1CCN(Cc2ccnc3ccc(-c4c[nH]nc4-c4cccc(C)n4)nc23)CC1 [Compound 821, ethyl 2-[4-[[6-[3-(6-methyl-2-pyridyl)-1H-pyrazol-4-yl]-1,5-naphthyridin-4-yl]methyl]piperazin-1-yl]acetate] | 25.1 to 158 |
| 0.398 to 3.16 | Cc1cccc(-c2n[nH]cc2-c2ccc3nccc(CN4CCN(CC(=O)O)CC4)c3n2)n1 [Compound 822, 2-[4-[[6-[3-(6-methyl-2-pyridyl)-1H-pyrazol-4-yl]-1,5-naphthyridin-4-yl]methyl]piperazin-1-yl]acetic acid] | 25.1 to 158 |
| 0.398 to 3.16 | Cc1cccc(-c2n[nH]cc2-c2ccc3nccc(NCCN4CCOCC4)c3n2)n1 [Compound 823, 6-[3-(6-methyl-2-pyridyl)-1H-pyrazol-4-yl]-N-(2-morpholinoethyl)-1,5-naphthyridin-4-amine] | 200 to 1260 |
| 0.0398 to 0.316 | Cc1cccc(-c2n[nH]cc2-c2ccc3nccc(-c4cnco4)c3n2)n1 [Compound 824, 5-[6-[3-(6-methyl-2-pyridyl)-1H-pyrazol-4-yl]-1,5-naphthyridin-4-yl]oxazole] | < 20 |
| 0.398 to 3.16 | Cc1cccc(-c2n[nH]cc2-c2ccc3nccc(NCC(=O)N4CCOCC4)c3n2)n1 [Compound 825, 2-[[6-[3-(6-methyl-2-pyridyl)-1H-pyrazol-4-yl]-1,5-naphthyridin-4-yl]amino]-1-morpholino-ethanone] | 25.1 to 158 |
| 0.398 to 3.16 | Cc1cccc(-c2n[nH]cc2-c2ccc3nccc(C(=O)OCCCN4CCOCC4)c3n2)n1 [Compound 826, 3-morpholinopropyl 6-[3-(6-methyl-2-pyridyl)-1H-pyrazol-4-yl]-1,5-naphthyridine-4-carboxylate] | 25.1 to 158 |
| 0.398 to 3.16 | Cc1cccc(-c2n[nH]cc2-c2ccc3nccc(C(=O)OCCN4CCOCC4)c3n2)n1 [Compound 827, 2-morpholinoethyl 6-[3-(6-methyl-2-pyridyl)-1H-pyrazol-4-yl]-1,5-naphthyridine-4-carboxylate] | 25.1 to 158 |
| 3.98 to 31.6 | Cc1cccc(-c2n[nH]cc2-c2ccc3nccc(CN(C)CCN4CCOCC4)c3n2)n1 [Compound 828, N-methyl-N-[[6-[3-(6-methyl-2-pyridyl)-1H-pyrazol-4-yl]-1,5-naphthyridin-4-yl]methyl]-2-morpholino-ethanamine] | 25.1 to 158 |
| 0.398 to 3.16 | CNCc1ccnc2ccc(-c3c[nH]nc3-c3cccc(C)n3)nc12 [Compound 829, N-methyl-1-[6-[3-(6-methyl-2-pyridyl)-1H-pyrazol-4-yl]-1,5-naphthyridin-4-yl]methanamine] | 25.1 to 158 |
| 3.98 to 31.6 | Cc1cccc(-c2n[nH]cc2-c2ccc3nccc(CN(C)C)c3n2)n1 [Compound 830, N,N-dimethyl-1-[6-[3-(6-methyl-2-pyridyl)-1H-pyrazol-4-yl]-1,5-naphthyridin-4-yl]methanamine] | 25.1 to 158 |
| 0.0398 to 0.316 | Cc1cccc(-c2n[nH]cc2-c2ccc3nccc(N(C)CCN4CCOCC4)c3n2)n1 [Compound 831, N-methyl-6-[3-(6-methyl-2-pyridyl)-1H-pyrazol-4-yl]-N-(2-morpholinoethyl)-1,5-naphthyridin-4-amine] | 200 to 1260 |
| 0.0398 to 0.316 | Cc1cccc(-c2n[nH]cc2-c2ccc3nccc(-c4cnoc4)c3n2)n1 [Compound 832, 4-[6-[3-(6-methyl-2-pyridyl)-1H-pyrazol-4-yl]-1,5-naphthyridin-4-yl]isoxazole] | 25.1 to 158 |
| 0.0398 to 0.316 | Cc1cccc(-c2n[nH]cc2-c2ccc3nccc(-c4cnn(CCN5CCOCC5)c4)c3n2)n1 [Compound 833, 4-[2-[4-[6-[3-(6-methyl-2-pyridyl)-1H-pyrazol-4-yl]-1,5-naphthyridin-4-yl]pyrazol-1-yl]ethyl]morpholine] | 25.1 to 158 |
| 0.0398 to 0.316 | Cc1cccc(-c2n[nH]cc2-c2ccc3nccc(-c4cn[nH]c4)c3n2)n1 [Compound 834, 2-[3-(6-methyl-2-pyridyl)-1H-pyrazol-4-yl]-8-(1H-pyrazol-4-yl)-1,5-naphthyridine] | < 20 |
| 0.398 to 3.16 | Cc1cccc(-c2n[nH]cc2-c2ccc3nccc(N)c3n2)n1 [Compound 835, 6-[3-(6-methyl-2-pyridyl)-1H-pyrazol-4-yl]-1,5-naphthyridin-4-amine] | 25.1 to 158 |
| 3.98 to 31.6 | Cc1cccc(-c2n[nH]cc2-c2ccc3nccc(N(C)CC(=O)N4CCOCC4)c3n2)n1 [Compound 836, 2-[methyl-[6-[3-(6-methyl-2-pyridyl)-1H-pyrazol-4-yl]-1,5-naphthyridin-4-yl]amino]-1-morpholino-ethanone] | 200 to 1260 |
| 0.0398 to 0.316 | Cc1cccc(-c2n[nH]cc2-c2ccc3nccc(N(C)C)c3n2)n1 [Compound 837, N,N-dimethyl-6-[3-(6-methyl-2-pyridyl)-1H-pyrazol-4-yl]-1,5-naphthyridin-4-amine] | 25.1 to 158 |
| 0.398 to 3.16 | CNc1ccnc2ccc(-c3c[nH]nc3-c3cccc(C)n3)nc12 [Compound 838, N-methyl-6-[3-(6-methyl-2-pyridyl)-1H-pyrazol-4-yl]-1,5-naphthyridin-4-amine] | 25.1 to 158 |
| 0.398 to 3.16 | Cc1cccc(-c2n[nH]cc2-c2ccc3nccc(NC(=O)CN4CCN(C(C)C)CC4)c3n2)n1 [Compound 839, 2-(4-isopropylpiperazin-1-yl)-N-[6-[3-(6-methyl-2-pyridyl)-1H-pyrazol-4-yl]-1,5-naphthyridin-4-yl]acetamide] | 25.1 to 158 |
